Experimental data as given in ChEMBL document CHEMBL5346894, “Developments of PROTACs technology in immune-related diseases” (Eur J Med Chem, 2023).
Each block holds one compound with its values, some of them ahead of it.

Assays:
[1] = biological target: Protein cereblon/Histone acetyltransferase KAT2B (Homo sapiens) (UniProt Q92831+Q96SW2); experiment: Protac activity at CRBN/PCAF in human THP-1 cells assessed as PCAF degradation at 1.5 nM measured after 10 mins by Western blot analysis relative to control; assay type: cell-based
[2] = biological target: Protein cereblon/Histone acetyltransferase KAT2A (Homo sapiens) (UniProt Q92830+Q96SW2); experiment: Protac activity at CRBN/GCN5 in human THP-1 cells assessed as GCN5 degradation at 3 nM measured after 10 mins by Western blot analysis relative to control; assay type: cell-based
[3] = biological target: Protein cereblon/Indoleamine 2,3-dioxygenase 1 (Homo sapiens) (UniProt P14902+Q96SW2); experiment: Protac activity at CRBN/IDO1 in human HeLa cell assessed as degradation of IDO1 measured after 24 hrs by Western blot assay relative to control; assay type: cell-based
[4] = biological target: T1, von Hippel-Lindau disease tumor suppressor/Histone deacetylase 3 (Homo sapiens, UniProt O15379+P40337); experiment: Protac activity at VHL/HDAC3 in human MDA-MB-468 cells assessed as HDAC3 degradation measured after 14 hrs by Western blot analysis; assay type: cell-based
[5] = biological target: T1, von Hippel-Lindau disease tumor suppressor/Histone deacetylase 3; experiment: Protac activity at VHL/HDAC3 in human MDA-MB-468 cells assessed as HDAC3 degradation at 125 nM measured after 8 hrs by Western blot analysis relative to control; assay type: cell-based
[6] = biological target: von Hippel-Lindau disease tumor suppressor/Histone deacetylase 1/Lysine-specific histone demethylase 1A/REST corepressor 1 (Homo sapiens, UniProt O60341+P40337+Q13547+Q9UKL0); experiment: Protac activity at VHL/LSD1/HDAC1/CoREST complex interaction in human ES1 cells assessed as HDAC1 degradation by fluorescence based assay; assay type: cell-based
[7] = biological target: von Hippel-Lindau disease tumor suppressor/Histone deacetylase 2/Lysine-specific histone demethylase 1A/REST corepressor 1 (Homo sapiens, UniProt O60341+P40337+Q92769+Q9UKL0); experiment: Protac activity at VHL/LSD1/HDAC2/CoREST complex interaction in human ES1 cells assessed as induction of HDAC2 degradation by fluorescence based assay; assay type: cell-based
[8] = biological target: von Hippel-Lindau disease tumor suppressor/Histone deacetylase 3/Lysine-specific histone demethylase 1A/REST corepressor 1 (Homo sapiens, UniProt O15379+O60341+P40337+Q9UKL0); experiment: Protac activity at VHL/LSD1/HDAC3/CoREST complex interaction in human ES1 cells assessed as induction of HDAC3 degradation by fluorescence based assay; assay type: cell-based
[9] = biological target: von Hippel-Lindau disease tumor suppressor/Interleukin-1 receptor-associated kinase 4 (Homo sapiens, UniProt Q9NWZ3+P40337); experiment: Protac activity at VHL/IRAK4 in human HEK293T cells assessed as IRAK4 degradation measured after 24 hrs by immunoblotting analysis; assay type: cell-based
Protein cereblon = Protein cereblon (Homo sapiens, UniProt Q96SW2); experiment: Binding affinity to CRBN (unknown origin) assessed as dissociation constant by Tr-FRET assay
[10] = biological target: T2, von Hippel-Lindau disease tumor suppressor/Receptor-interacting serine/threonine-protein kinase 2 (Homo sapiens, UniProt O43353+P40337); experiment: Protac activity at VHL/RIPK2 in human THP-1 cells assessed as RIPK2 degradation measured after 16 hrs by Western blot analysis; assay type: cell-based
Target sequence in this assay (O43353 whole entry): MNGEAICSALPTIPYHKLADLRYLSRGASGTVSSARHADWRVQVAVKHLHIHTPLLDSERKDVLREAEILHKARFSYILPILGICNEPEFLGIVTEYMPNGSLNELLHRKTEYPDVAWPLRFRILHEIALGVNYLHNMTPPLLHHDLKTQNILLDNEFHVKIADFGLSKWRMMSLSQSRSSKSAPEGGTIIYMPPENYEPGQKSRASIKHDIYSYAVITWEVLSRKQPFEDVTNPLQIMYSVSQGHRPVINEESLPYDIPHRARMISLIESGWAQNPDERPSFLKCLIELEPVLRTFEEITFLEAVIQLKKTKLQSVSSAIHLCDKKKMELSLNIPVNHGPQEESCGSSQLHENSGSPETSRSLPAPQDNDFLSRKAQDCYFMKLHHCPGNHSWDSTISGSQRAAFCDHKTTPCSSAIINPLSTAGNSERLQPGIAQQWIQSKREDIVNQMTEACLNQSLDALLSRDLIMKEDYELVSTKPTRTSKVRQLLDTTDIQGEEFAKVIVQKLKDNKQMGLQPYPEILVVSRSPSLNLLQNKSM
Target sequence in this assay (P40337 whole entry): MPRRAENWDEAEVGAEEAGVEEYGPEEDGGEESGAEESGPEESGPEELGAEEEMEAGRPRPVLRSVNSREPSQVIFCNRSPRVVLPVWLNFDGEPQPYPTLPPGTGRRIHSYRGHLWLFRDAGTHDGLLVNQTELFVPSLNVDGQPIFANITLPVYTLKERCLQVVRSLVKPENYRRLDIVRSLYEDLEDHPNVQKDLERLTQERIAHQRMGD

[11] = biological target: T2, von Hippel-Lindau disease tumor suppressor/Receptor-interacting serine/threonine-protein kinase 2; experiment: Protac activity at VHL/RIPK2 in human THP-1 cells assessed as RIPK2 degradation at 10 nM measured after 16 hrs by Western blot analysis relative to control; assay type: cell-based
Target sequence in this assay (O43353 whole entry, looked up): as the sequence (O43353 whole entry) above
Target sequence in this assay (P40337 whole entry, looked up): as the sequence (P40337 whole entry) above

[12] = biological target: Receptor-interacting serine/threonine-protein kinase 2 (Homo sapiens, UniProt O43353); experiment: Inhibition of RIPK2 (unknown origin) by fluorescence polarization assay
Jurkat = experiment: Anticancer activity against human Jurkat cells assessed as cell growth inhibition; assay type: functional, cell-based
HL-60 = experiment: Anticancer activity against human HL-60 cells assessed as cell growth inhibition; assay type: functional, cell-based
MOLT-4 = experiment: Anticancer activity against human MOLT-4 cells assessed as cell growth inhibition; assay type: functional, cell-based
[13] = biological target: Protein cereblon/Poly [ADP-ribose] polymerase 1 (Homo sapiens) (UniProt P09874+Q96SW2); experiment: Protac activity at CRBN/PARP1 in human SW620 cells assessed as degradation of PARP1 at <100 nM measured after 24 hrs by Western blot analysis relative to control; assay type: cell-based
HeLa = experiment: Anticancer activity against human HeLa cells assessed as cell growth inhibition measured after 24 hrs by MTT assay; assay type: functional, cell-based
[14] = biological target: Protein cereblon/Receptor-interacting serine/threonine-protein kinase 2 (Homo sapiens, UniProt O43353+Q96SW2); experiment: Protac activity at CRBN/RIPK2 in human THP-1 cells assessed as degradation of RIPK2 measured after 18 hrs by capillary immunoassay; assay type: cell-based
[15] = biological target: E3 ubiquitin-protein ligase XIAP/Receptor-interacting serine/threonine-protein kinase 2 (Homo sapiens, UniProt P98170+O43353); experiment: Protac activity at IAP/RIPK2 in human THP-1 cells assessed as degradation of RIPK2 measured after 18 hrs by capillary immunoassay; assay type: cell-based

Sequence of Protein cereblon/Indoleamine 2,3-dioxygenase 1 (Homo sapiens) (P14902 whole entry, looked up): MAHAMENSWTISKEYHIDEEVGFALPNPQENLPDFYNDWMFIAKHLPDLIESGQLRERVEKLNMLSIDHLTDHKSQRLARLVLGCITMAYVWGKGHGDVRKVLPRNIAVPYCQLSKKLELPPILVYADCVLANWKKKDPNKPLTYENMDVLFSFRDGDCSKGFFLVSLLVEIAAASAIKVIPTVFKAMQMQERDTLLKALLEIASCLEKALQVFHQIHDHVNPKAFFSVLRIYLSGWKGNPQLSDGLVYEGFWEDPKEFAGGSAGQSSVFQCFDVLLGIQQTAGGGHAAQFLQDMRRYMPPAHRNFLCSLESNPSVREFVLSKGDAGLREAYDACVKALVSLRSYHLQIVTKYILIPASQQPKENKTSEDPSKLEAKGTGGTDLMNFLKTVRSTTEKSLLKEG
Sequence of Protein cereblon/Indoleamine 2,3-dioxygenase 1 (Homo sapiens) (Q96SW2 whole entry, looked up): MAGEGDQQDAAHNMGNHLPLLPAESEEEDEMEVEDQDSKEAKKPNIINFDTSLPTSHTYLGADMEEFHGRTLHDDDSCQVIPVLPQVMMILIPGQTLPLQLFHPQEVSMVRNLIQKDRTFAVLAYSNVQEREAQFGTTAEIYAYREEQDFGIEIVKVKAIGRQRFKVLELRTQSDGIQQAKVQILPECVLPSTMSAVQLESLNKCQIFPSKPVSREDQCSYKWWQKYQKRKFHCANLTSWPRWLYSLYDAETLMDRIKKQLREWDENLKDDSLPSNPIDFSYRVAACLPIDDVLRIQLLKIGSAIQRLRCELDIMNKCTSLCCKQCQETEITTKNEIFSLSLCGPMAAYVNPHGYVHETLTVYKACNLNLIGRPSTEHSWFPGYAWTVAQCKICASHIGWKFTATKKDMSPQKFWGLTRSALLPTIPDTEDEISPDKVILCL
Sequence of Receptor-interacting serine/threonine-protein kinase 2 (O43353 whole entry): as the sequence (O43353 whole entry) above
Sequence of Protein cereblon/Receptor-interacting serine/threonine-protein kinase 2 (O43353 whole entry): as above
Sequence of Protein cereblon/Receptor-interacting serine/threonine-protein kinase 2 (Q96SW2 whole entry): as the sequence (Q96SW2 whole entry, looked up) above
Sequence of von Hippel-Lindau disease tumor suppressor/Interleukin-1 receptor-associated kinase 4 (Q9NWZ3 whole entry): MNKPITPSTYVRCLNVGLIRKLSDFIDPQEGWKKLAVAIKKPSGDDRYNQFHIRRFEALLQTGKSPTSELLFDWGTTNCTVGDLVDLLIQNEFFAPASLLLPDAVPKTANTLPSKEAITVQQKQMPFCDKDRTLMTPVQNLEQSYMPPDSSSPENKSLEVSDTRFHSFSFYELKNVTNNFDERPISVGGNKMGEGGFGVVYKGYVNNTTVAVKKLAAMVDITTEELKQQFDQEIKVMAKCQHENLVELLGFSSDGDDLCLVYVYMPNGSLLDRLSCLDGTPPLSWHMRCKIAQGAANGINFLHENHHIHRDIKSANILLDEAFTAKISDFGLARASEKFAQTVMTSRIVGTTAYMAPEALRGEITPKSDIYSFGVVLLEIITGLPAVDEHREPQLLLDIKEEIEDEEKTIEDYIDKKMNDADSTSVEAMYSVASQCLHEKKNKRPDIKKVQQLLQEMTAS
Sequence of von Hippel-Lindau disease tumor suppressor/Interleukin-1 receptor-associated kinase 4 (P40337 whole entry): as the sequence (P40337 whole entry) above

DC50 [10]: 1.4 nM
Emax [11]: > 95%
IC50 [12]: 10 nM
SMILES: C=C([C@@H](NC(=O)COCCOCCOCCOCCOc1cc2nccc(Nc3ccc4scnc4c3)c2cc1S(=O)(=O)C(C)(C)C)C(C)(C)C)N1C[C@H](O)C[C@H]1C(=O)NCc1ccc(-c2scnc2C)cc1

DC50 [14]: 2.5 nM
SMILES: CC(C)(C)S(=O)(=O)c1cc2c(Nc3ccc4scnc4c3)ccnc2cc1OCCOCCOCCOCCOCC(=O)Nc1cccc2c1CN(C1CCC(=O)NC1=O)C2=O (stereo not given)

DC50 [15]: 2 nM
SMILES: CN[C@@H](C)C(=O)N[C@H](C(=O)N1Cc2cc(OCCOCCOCCOCCOc3cc4nccc(Nc5ccc6scnc6c5)c4cc3S(=O)(=O)C(C)(C)C)ccc2C[C@H]1C(=O)N[C@@H]1CCCc2ccccc21)C(C)(C)C

Further lines, the compound ahead of its results:

SMILES: CN1C[C@H](Nc2cnn(C)c(=O)c2Br)C[C@H](c2ccc(C(=O)N(C)CCCN(C)c3ccc(CCCOc4cccc5c4C(=O)N(C4CCC(=O)NC4=O)C5=O)cc3)cc2)C1 (stereo not given in full)
Activity [1]: 50%
Activity [2]: 50%

SMILES: O=C1CCC(N2C(=O)c3cccc(NCCOCCOCCOCCOCCOCCOCCOCCNCCNc4nonc4/C(=N/O)Nc4ccc(F)c(Br)c4)c3C2=O)C(=O)N1 (stereo not given)
Emax [3]: 93%

SMILES: CCCNNC(=O)c1ccc(-c2ccc(NC(=O)CCCCCCC(=O)N[C@H](C(=O)N3C[C@H](O)C[C@H]3C(=O)N[C@@H](C)c3ccc(-c4scnc4C)cc3)C(C)(C)C)cc2)cc1
DC50 [4]: 42 nM
Activity [5]: 70%

SMILES: Cc1ncsc1-c1ccc(CNC(=O)[C@@H]2C[C@@H](O)CN2C(=O)[C@@H](NC(=O)CCCCCCCCCCC(=O)Nc2ccc(C(=O)Nc3ccccc3N)cc2)C(C)(C)C)cc1
IC50 [6]: 500 nM
IC50 [7]: 500 nM
IC50 [8]: 500 nM

SMILES: CC(C)Nc1cc(-n2ccc3cc(C#N)cnc32)ncc1C(=O)N[C@H]1CC[C@H](C(=O)NCCOCCNC(=O)COc2cccc3c2C(=O)N(C2CCC(=O)NC2=O)C3=O)CC1 (stereo not given in full)
DC50 [9]: 405 nM
Kd (Protein cereblon): 490 nM

SMILES: O=C(/C=C/c1cccnc1)NCCCCC1CCN(C(=O)c2ccc(N3CCN(CCCCCC#Cc4cccc5c4CN(C4CCC(=O)NC4=O)C5=O)CC3)cc2)CC1 (stereo not given)
IC50 (Jurkat): 4.46 nM
IC50 (HL-60): 8.56 nM
IC50 (MOLT-4): 2.96 nM

SMILES: O=C1CCC(N2Cc3c(NCCCCCCCCCCCNC(=O)c4cc(Cc5n[nH]c(=O)c6ccccc56)ccc4F)cccc3C2=O)C(=O)N1 (stereo not given)
Activity [13]: 80%

SMILES: CC1(NCc2cn(CCOCCOCCOCCOCCNc3cccc4c3C(=O)N(C3CCC(=O)NC3=O)C4=O)nn2)CCN(c2cnc(-c3cccc(Cl)c3Cl)c(N)n2)CC1 (stereo not given)
IC50 (HeLa): 4.3 nM
